Target: T1, SARS-CoV-2 nucleocapsid condensates (Severe acute respiratory syndrome coronavirus 2, UniProt P0DTC9)
T1 construct: Streptavidin tag (so in the source); made in house; host or cells: HEK cells
Assay: drug partitioning assay in nucleocapsid condensates (confocal fluorescence microscopy)
Settings: in vitro condensates not containing DNA; 10 uM nucleocapsid, 10% PEG, 1-50 uM drug

## O=C1c2c(O)ccc(O)c2C(=O)c2c(NCCNCCO)ccc(NCCNCCO)c21 [mitoxantrone]
  partitioning of drug into nucleocapsid condensates: partitions into SARS-CoV-2 nucleocapsid condensates not containing DNA

From US12644889B2, “Viral condensates and methods of use thereof” (Whitehead Institute for Biomedical Research, priority 2020, dated 2026)
